This is an account of results in ChEMBL document CHEMBL1123565, “Synthesis and 5-hydroxytryptamine antagonist activity of 2-[[2-(dimethylamino)ethyl]thio]-3-phenylquinoline and its analogues” (J Med Chem, 1987).

Experiment [1] relates to Rattus norvegicus. In words: Antagonistic activity against fenfluramine induced hyperthermia in rat after peroral administration. Type of experiment: functional. The conditions noted are these: po, read-out: ID50 (the source's name).
In experiment [2] the test system is Mus musculus. Briefly: Antagonistic activity test against 5-Hydroxytryptamine-induced head shake in mouse after intraperitoneal administration. In kind it is functional. As to conditions: ip, read-out: ID50 (the source's name).
Experiment [3] deals with Rattus norvegicus. In words: compound was tested for antagonistic activity against fenfluramine induced hyperthermia in rat after peroral administration at 50 mg/kg; NA denotes not active. On the set-up: dose 50 mg/kg. In kind it is functional, organism-based.
Experiment [4] relates to Rattus norvegicus. In words: compound was tested for antagonistic activity against fenfluramine induced hyperthermia in rat after peroral administration; NA denotes not active at a dose of 50 mg/kg. Type of experiment: functional, organism-based. Also noted: dose 50 mg/kg.
Experiment [5] deals with Mus musculus. Briefly: compound was tested for antagonistic activity against 5-Hydroxytryptamine-induced head shake in mouse after intraperitoneal administration; NA denotes not active. In kind it is functional, organism-based.
Experiment [6] concerns Mus musculus. In words: compound was tested for antagonistic activity against 5-Hydroxytryptamine-induced head shake in mouse after intraperitoneal administration; Value ranges from 0.35-0.77. In kind it is functional. The conditions noted are these: ip, read-out: ID50 (the source's name).
Experiment [7] deals with Rattus norvegicus. Briefly: compound was tested for antagonistic activity against fenfluramine induced hyperthermia in rat after peroral administration; Value ranges from 0.1-1.3. Type of experiment: functional. As to conditions: po, read-out: ID50 (the source's name).
Experiment [8] is filed under the species Rattus norvegicus. In words: compound was tested for antagonistic activity against fenfluramine induced hyperthermia in rat. Type of experiment: functional. The conditions noted are these: read-out: ID50 (the source's name).

Active and inactive are the calls of the source. The rule behind the calls is not given here.

On to `COc1c(-c2ccc(F)cc2)c(SCCN(C)C)nc2ccccc12.O=C(O)C(=O)O`, for which the ED50 in experiment [1] is 3.3 mg/kg; in experiment [2], 50 mg/kg.

As to `CN(C)CCSc1nc2ccccc2cc1-c1ccccc1F.Cl`, the ED50 in experiment [1] is 7.2 mg/kg; in experiment [2], 1.9 mg/kg.

With `CSc1ccc2nc(SCCN(C)C)c(-c3ccccc3)cc2c1.O=C(O)C(=O)O`, the ED50 in experiment [1] was 10.3 mg/kg; in experiment [2], 50 mg/kg.

In the case of `CN(C)CCSc1nc2ccccc2cc1-c1ccccn1.O=C(O)C(=O)O`, the ED50 in experiment [1] was found to be 50 mg/kg; in experiment [2] it was 3.4 mg/kg.

In the case of `CCN(C)CCSc1nc2ccccc2cc1-c1ccccc1.O=C(O)C(=O)O`, the ED50 in experiment [2] was 50 mg/kg.

In the case of `CCN(CC)CCSc1nc2ccccc2cc1-c1ccccc1.Cl`, the ED50 in experiment [1] turned out to be 50 mg/kg; in experiment [2] it was 25 mg/kg.

With `CN(C)CCSc1nc2ccccc2cc1-c1ccc(Br)cc1.Cl`, the values for the ED50 in experiment [1] and in experiment [2] were 50 mg/kg and 19.1 mg/kg, respectively.

Consider `COc1c(-c2ccsc2)c(SCCN(C)C)nc2ccccc12.O=C(O)C(=O)O`, for which the ED50 in experiment [2] is 50 mg/kg. For the same compound, the ID50 result in experiment [3] is “inactive”.

Regarding `COc1ccccc1-c1c(SCCN(C)C)nc2ccccc2c1C.O=C(O)C(=O)O`, the ED50 in experiment [1] and in experiment [2] was 50 mg/kg throughout.

As for `CN(C)CCSc1nc2ccccc2cc1-c1ccc(Cl)cc1.Cl`, the ID50 result in experiment [4] is “inactive”. Moreover, the ED50 in experiment [2] was 9.1 mg/kg.

For `CN(C)CCSc1nc2ccccc2c(C(N)=O)c1-c1ccccc1`, the ID50 result in experiment [5] and in experiment [3] was “inactive” throughout.

As for `CN(C)CCSc1nc2ccccc2cc1C1CCCCC1.Cl`, the ED50 in experiment [1] and in experiment [2] was 50 mg/kg throughout.

Regarding `CC[C@@H](CO)NC(=O)[C@@H]1C=C2c3cccc4c3c(cn4C)C[C@H]2N(C)C1` [METHYSERGIDE], the ED50 stood at 0.52 mg/kg in experiment [6] and 0.4 mg/kg in experiment [7].

In the case of `CNCCSc1nc2ccccc2cc1-c1ccccc1.Cl`, the ED50 in experiment [1] was found to be 7 mg/kg; in experiment [2], 6.2 mg/kg.

As for `CCc1cc2ccccc2nc1SCCN(C)C.Cl`, the ED50 in experiment [1] and in experiment [2] was 50 mg/kg each time.

Regarding `COc1ccccc1-c1cc2cc(C)ccc2nc1SCCN(C)C.O=C(O)C(=O)O`, the ED50 in experiment [1] and in experiment [2] was 50 mg/kg each time.

Take `CSc1ccc(-c2cc3ccccc3nc2SCCN(C)C)cc1.Cl`: the ED50 was determined as 7.8 mg/kg in experiment [8] and 10 mg/kg in experiment [2].

`CSc1ccc2cc(-c3ccccc3)c(SCCN(C)C)nc2c1`: the ED50 in experiment [1] worked out at 50 mg/kg. For the same compound, the ID50 result in experiment [5] was “inactive”.

On to `Cc1c(-c2ccccc2)c(SCCN(C)C)nc2ccccc12.O=C(O)C(=O)O`, for which the ED50 in experiment [1] is 50 mg/kg; in experiment [2], 6.2 mg/kg.

For the compound `CCC(C)c1cc2ccccc2nc1SCCN(C)C.O=C(O)C(=O)O` (stereo unspecified), the ED50 in experiment [1] turned out to be 50 mg/kg; in experiment [2] it was 1.5 mg/kg.

Turning to `Cc1ncc(-c2cc3ccccc3nc2SCCN(C)C)s1.O=C(O)C(=O)O`, the ED50 in experiment [1] was determined as 6.9 mg/kg; in experiment [2], 4.9 mg/kg.

For the compound `Cc1ccccc1-c1cc2ccccc2nc1SCCN(C)C.Cl`, the ED50 amounted to 50 mg/kg in experiment [1] and 3 mg/kg in experiment [2].

For `CN(C)CCSc1nc2ccccc2cc1-c1cccs1.O=C(O)C(=O)O`, the results for the ED50 in experiment [1] and in experiment [2] were 6.9 mg/kg and 4.9 mg/kg, respectively.

Consider `CN(C)CCSc1nc2ccccc2cc1C(C)(C)C.O=C(O)C(=O)O`, for which the ED50 in experiment [2] came out at 50 mg/kg. In addition, the ID50 entry in experiment [3] is “inactive”.

For `CN(C)CCSc1nc2ccccc2cc1-c1ccc(C#N)cc1.Cl`, the ED50 was 10.7 mg/kg in experiment [1] and 1.2 mg/kg in experiment [2].

Turning to `CN(C)CCSc1nc2ccccc2cc1-c1ccc(F)cc1.Cl`, the ED50 is 2.9 mg/kg in experiment [1] and 1.7 mg/kg in experiment [2].

In the case of `Cc1cccc2cc(-c3ccccc3)c(SCCN(C)C)nc12`, the ID50 result in experiment [5] and in experiment [3] was “inactive” each time.

On to `Cc1c(-c2ccsc2)c(SCCN(C)C)nc2ccccc12.O=C(O)C(=O)O`, for which the results for the ED50 in experiment [1] and in experiment [2] were 50 mg/kg and 3.1 mg/kg, respectively.

Turning to `COc1cccc(-c2cc3ccccc3nc2SCCN(C)C)c1.Cl`, the ED50 stood at 5.1 mg/kg in experiment [1] and 25 mg/kg in experiment [2].

As for `Cc1ccc2cc(-c3ccccc3)c(SCCN(C)C)nc2c1.O=C(O)C(=O)O`, the ED50 in experiment [1] and in experiment [2] was 50 mg/kg each time.

`CN(C)CCSc1nc2ccc(Br)cc2cc1-c1ccccc1.O=C(O)C(=O)O`: the ED50 amounted to 6.7 mg/kg in experiment [1] and 50 mg/kg in experiment [2].
